Counter-ions that a name gives are not always drawn. Where only a bound is given, the exact number is not on record here.

A word on the EC50: it is the concentration needed to bring the measured effect to its halfway point.

In experiment [1] the target is T1, 5-hydroxytryptamine receptor 2C (Homo sapiens, UniProt P28335).
T1 sequence (P28335 whole entry): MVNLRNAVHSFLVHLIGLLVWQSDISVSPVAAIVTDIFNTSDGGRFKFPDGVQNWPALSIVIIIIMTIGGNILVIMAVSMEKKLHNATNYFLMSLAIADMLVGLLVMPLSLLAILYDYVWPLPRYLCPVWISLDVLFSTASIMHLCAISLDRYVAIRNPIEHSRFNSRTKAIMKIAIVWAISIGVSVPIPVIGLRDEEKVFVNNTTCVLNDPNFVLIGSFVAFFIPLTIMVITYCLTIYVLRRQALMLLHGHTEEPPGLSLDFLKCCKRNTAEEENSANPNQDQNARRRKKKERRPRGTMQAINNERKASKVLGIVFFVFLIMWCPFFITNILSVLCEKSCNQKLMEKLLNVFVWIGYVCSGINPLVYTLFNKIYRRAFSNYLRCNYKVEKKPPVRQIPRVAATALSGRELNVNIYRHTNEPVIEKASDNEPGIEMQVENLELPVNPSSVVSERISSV
Description: Agonist activity at human 5HT2C receptor expressed in HEK293 cells assessed as calcium flux by FLIPR assay. Background: A change in cytosolic calcium serves as a functional read-out for many receptors and channels.

Experiment [2] concerns the target 5-hydroxytryptamine receptor 2A (Homo sapiens, UniProt P28223). Description: Agonist activity at human 5HT2A receptor expressed in HEK293 cells assessed as calcium flux by FLIPR assay.
The target in experiment [3] is 5-hydroxytryptamine receptor 2B (Homo sapiens, UniProt P41595). Briefly: Agonist activity at human 5HT2B receptor expressed in HEK293 cells assessed as calcium flux by FLIPR assay.
Sequence of 5-hydroxytryptamine receptor 2B (P41595 whole entry): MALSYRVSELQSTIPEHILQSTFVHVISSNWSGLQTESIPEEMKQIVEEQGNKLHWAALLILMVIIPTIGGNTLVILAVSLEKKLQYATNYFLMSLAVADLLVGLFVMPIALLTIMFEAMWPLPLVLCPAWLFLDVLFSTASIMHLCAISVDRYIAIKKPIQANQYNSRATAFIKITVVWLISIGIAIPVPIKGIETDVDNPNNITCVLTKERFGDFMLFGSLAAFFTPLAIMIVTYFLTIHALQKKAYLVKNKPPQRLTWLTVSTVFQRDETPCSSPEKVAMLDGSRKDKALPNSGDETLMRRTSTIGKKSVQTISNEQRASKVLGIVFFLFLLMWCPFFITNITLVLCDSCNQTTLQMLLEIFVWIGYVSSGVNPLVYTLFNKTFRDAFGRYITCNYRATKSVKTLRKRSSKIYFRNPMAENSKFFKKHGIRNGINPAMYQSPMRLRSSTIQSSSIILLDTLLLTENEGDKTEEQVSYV

Sequence of 5-hydroxytryptamine receptor 2A (P28223 whole entry): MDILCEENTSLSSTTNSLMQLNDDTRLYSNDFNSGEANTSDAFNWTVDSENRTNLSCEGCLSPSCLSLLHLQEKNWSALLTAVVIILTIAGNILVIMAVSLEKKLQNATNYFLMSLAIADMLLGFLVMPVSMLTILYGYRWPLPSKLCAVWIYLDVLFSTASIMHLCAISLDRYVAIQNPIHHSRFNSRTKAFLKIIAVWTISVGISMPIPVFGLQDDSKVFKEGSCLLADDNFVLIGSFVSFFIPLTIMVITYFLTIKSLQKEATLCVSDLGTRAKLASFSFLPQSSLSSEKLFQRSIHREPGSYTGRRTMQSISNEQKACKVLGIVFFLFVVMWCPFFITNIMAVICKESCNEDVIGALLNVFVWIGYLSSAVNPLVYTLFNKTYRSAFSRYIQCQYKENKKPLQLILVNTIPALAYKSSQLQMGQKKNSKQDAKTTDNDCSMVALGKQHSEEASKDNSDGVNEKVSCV

`NC[C@H]1C[C@@H]1c1ccc(Cl)cc1Cl` (relative stereo) [trans-[2-(2,4-Dichlorophenyl)cyclopropyl]methylamine Hydrochloride]: the EC50 was found to be 18 nM in experiment [1], 51 nM in experiment [2] and 83 nM in experiment [3].
In the same order, the values of `NC[C@H]1C[C@@H]1c1ccc(Cl)cc1` (relative stereo) [trans-[2-(4-Chlorophenyl)cyclopropyl]methylamine Hydrochloride] are 76 nM, 4480 nM and 404 nM.
As to `Cc1ccc([C@H]2C[C@@H]2CN)c(Br)c1` (relative stereo) [trans-[2-(2-Bromo-4-methylphenyl)cyclopropyl]methylamine Hydrochloride], the results for the EC50 in experiment [1], in experiment [2] and in experiment [3] were 97 nM, 465 nM and 116 nM, respectively.
On the same counts, the results for `NC[C@H]1C[C@@H]1c1cccc(F)c1F` (relative stereo) [trans-[2-(2,3-Difluorophenyl)cyclopropyl]methylamine Hydrochloride] are 99 nM, more than 5000 nM and 366 nM.
In the same order, the values of `NC[C@H]1C[C@@H]1c1cccc(Cl)c1` (relative stereo) [trans-[2-(3-Chlorophenyl)cyclopropyl]methylamine Hydrochloride] are 10 nM, 1890 nM and 59 nM.
On the same counts, the results for `NC[C@H]1C[C@@H]1c1cccc(C(F)(F)F)c1` (relative stereo) [trans-[2-(3-Trifluoromethylphenyl)cyclopropyl]methylamine Hydrochloride] are 30 nM, 1480 nM and 77 nM.
Turning to `Cc1ccc([C@H]2C[C@@H]2CN)cc1C` (relative stereo) [trans-[2-(3,4-Dimethylphenyl)cyclopropyl]methylamine Hydrochloride], the EC50 was determined as 35 nM in experiment [1], 2390 nM in experiment [2] and 12 nM in experiment [3].
As to `NC[C@H]1C[C@@H]1c1ccc(C(F)(F)F)cc1` (relative stereo) [trans-[2-(4-Trifluoromethylphenyl)cyclopropyl]methylamine Hydrochloride], the EC50 in experiment [1] is 779 nM; in experiment [3], more than 1000 nM.
Regarding `Cc1cccc([C@H]2C[C@@H]2CN)c1C` (relative stereo) [trans-[2-(2,3-Dimethylphenyl)cyclopropyl]methylamine Hydrochloride], the EC50 turned out to be 7 nM in experiment [1], 360 nM in experiment [2] and 8.4 nM in experiment [3].
On to `c1ccc(CNC[C@H]2C[C@@H]2c2ccccc2)cc1` (relative stereo) [trans-N-Benzyl-(2-phenylcyclopropylmethyl)amine], for which the concentration giving a half-maximal response (EC50) in experiment [1] turned out to be 5700 nM.
In the case of `NC[C@H]1C[C@@H]1c1ccccc1Cl` (relative stereo) [trans-[2-(2-Chlorophenyl)cyclopropyl]methylamine Hydrochloride], the half-maximal effective concentration (EC50) was determined as 5.1 nM in experiment [1], 168 nM in experiment [2] and 32 nM in experiment [3].
Regarding `NC[C@H]1C[C@H]1c1ccccc1` (racemic) [(+/-)-Cis-(2-Phenylcyclopropyl)methylamineHydrochloride], the EC50 in experiment [1] was 3020 nM; in experiment [3] it was more than 10000 nM.
In the same order, the values of `CNC[C@H]1C[C@@H]1c1ccccc1` (relative stereo) [trans-N-Methyl-(2-phenylcyclopropylmethyl)amine] are 634 nM and more than 10000 nM.
Consider `NC[C@H]1C[C@@H]1c1ccc(Br)cc1` (relative stereo) [trans-[2-(4-Bromophenyl)cyclopropyl]methylamine Hydrochloride], for which the EC50 in experiment [1] is 138 nM; in experiment [2], more than 1000 nM; in experiment [3] it was 2740 nM.
Consider `NC[C@H]1C[C@@H]1c1cccc(O)c1` (relative stereo) [trans-[2-(3-Hydroxyphenyl)cyclopropyl]methylamine Hydrochloride], for which the concentration giving a half-maximal response (EC50) amounted to 3.3 nM in experiment [1], 247 nM in experiment [2] and 5.5 nM in experiment [3].
On the same counts, the results for `Cc1ccc([C@H]2C[C@@H]2CN)cc1` (relative stereo) [trans-[2-(4-Methylphenyl)cyclopropyl]methylamine Hydrochloride] are 135 nM, 1930 nM and 37 nM.
Regarding `NC[C@H]1C[C@@H]1c1ccccc1C(F)(F)F` (relative stereo) [trans-[2-(2-Trifluoromethylphenyl)cyclopropyl]methylamine Hydrochloride], the values for the EC50 in experiment [1] and in experiment [3] were 49 nM and 350 nM, respectively.
For the compound `Cc1cccc(Cl)c1[C@H]1C[C@@H]1CN` (relative stereo) [trans-[2-(2-Chloro-6-methylphenyl)cyclopropyl]methylamine Hydrochloride], the EC50 in experiment [1] stood at 3.5 nM; in experiment [2], 726 nM; in experiment [3], 7 nM.
On the same counts, the results for `Cc1cc([C@H]2C[C@@H]2CN)ccc1F` (relative stereo) [trans-[2-(4-Fluoro-3-methylphenyl)cyclopropyl]methylamine Hydrochloride] are 6 nM, 235 nM and 4.9 nM.
In the same order, the values of `COc1ccccc1[C@H]1C[C@@H]1CN` (relative stereo) [trans-[2-(2-Methoxyphenyl)cyclopropyl]methylamine Hydrochloride] are 26 nM, 2170 nM and 199 nM.
On the same counts, the results for `NC[C@H]1C[C@@H]1c1ccccc1O` (relative stereo) [trans-[2-(2-Hydroxyphenyl)cyclopropyl]methylamine Hydrochloride] are 161 nM, 513 nM and 492 nM.
On to `NC[C@H]1C[C@@H]1c1cccc(Br)c1` (relative stereo) [trans-[2-(3-Bromophenyl)cyclopropyl]methylamine Hydrochloride], for which the EC50 in experiment [1] was 14 nM; in experiment [2], 1680 nM; in experiment [3], 141 nM.
On to `COc1ccc([C@H]2C[C@@H]2CN)cc1` (relative stereo) [trans-[2-(4-Methoxyphenyl)cyclopropyl]methylamine Hydrochloride], for which the EC50 in experiment [1] worked out at 902 nM.
`COc1cccc([C@H]2C[C@@H]2CN)c1` (relative stereo) [trans-[2-(3-Methoxyphenyl)cyclopropyl]methylamine Hydrochloride]: the values for the EC50 in experiment [1], in experiment [2] and in experiment [3] were 16 nM, 613 nM and 75 nM, respectively.
In the same order, the values of `NC[C@H]1C[C@@H]1c1ccc(F)cc1F` [trans-[2-(2,4-Difluorophenyl)cyclopropyl]methylamine Hydrochloride] are 42 nM, 547 nM and 415 nM.
Take `Cc1ccc(Cl)c([C@H]2C[C@@H]2CN)c1F` [trans-[2-(6-Chloro-2-fluoro-3-methylphenyl)cyclopropyl]methylamineHydrochloride]: the EC50 in experiment [1] is 13 nM; in experiment [2], 330 nM; in experiment [3], 116 nM.
On the same counts, the results for `NC[C@H]1C[C@@H]1c1cccc(Cl)c1Cl` (relative stereo) [trans-[2-(2,3-Dichlorophenyl)cyclopropyl]methylamine Hydrochloride] are 11 nM, 349 nM and 14 nM.
In the same order, the values of `NC[C@H]1C[C@@H]1c1ccc(Cl)cc1F` (relative stereo) [trans-[2-(4-Chloro-2-fluorophenyl)cyclopropyl]methylamine Hydrochloride] are 128 nM, 774 nM and 459 nM.
With `NC[C@H]1C[C@@H]1c1ccc(F)c(F)c1` (relative stereo) [trans-[2-(3,4-Difluorophenyl)cyclopropyl]methylamine Hydrochloride], the EC50 is 9 nM in experiment [1], 578 nM in experiment [2] and 28 nM in experiment [3].
Take `NC[C@H]1C[C@@H]1c1ccccc1F` [trans-[2-(2-Fluorophenyl)cyclopropyl]methylamine Hydrochloride]: the EC50 in experiment [1] was determined as 29 nM; in experiment [3], 69 nM.
Turning to `NC[C@H]1C[C@@H]1c1cccc(F)c1` (relative stereo) [trans-[2-(3-Fluorophenyl)cyclopropyl]methylamine Hydrochloride], the 50% effective concentration (EC50) was found to be 3.3 nM in experiment [1], 437 nM in experiment [2] and 3.6 nM in experiment [3].
As to `NC[C@H]1C[C@@H]1c1c(F)cccc1F` (relative stereo) [trans-[2-(2,6-Difluorophenyl)cyclopropyl]methylamine Hydrochloride], the EC50 in experiment [1] is 87 nM; in experiment [2], more than 1000 nM; in experiment [3], 3340 nM.
In the same order, the values of `Cc1ccccc1[C@H]1C[C@@H]1CN` (relative stereo) [trans-[2-(2-Methylphenyl)cyclopropyl]methylamine Hydrochloride] are 23 nM, 1610 nM and 53 nM.
As for `NC[C@H]1C[C@@H]1c1ccc2ccccc2c1` (relative stereo) [trans-(2-Naphthalen-2-ylcyclopropyl)methylamine Hydrochloride], the EC50 in experiment [1] is 2900 nM; in experiment [3], 510 nM.

The values are drawn from BindingDB's records for doi:10.1021/jm801354e (University of Illinois At Chicago, 2009).
